In US7935724B2, “Thiophene and benzothiophene hydroxamic acid derivatives” (Merck HDAC Research, LLC, priority 2003, dated 2011):

Legend:
[1] = system: murine erythroleukemia cell line SC9; test: MTS assay (Cell Titer 96 Aqueous One Solution Cell Proliferation Assay); format: cell-based; conditions: Mus musculus, SC9, 48 h, Table 3, concentration inhibiting proliferation of SC9 cells, unit inferred, unit nm
Protocol: The novel compounds of the present invention were tested for their ability to inhibit proliferation of the murine erythroleukemia cell line SC9.
The MTS assay, also referred to as the Cell Titer 96 Aqueous One Solution Cell Proliferation Assay, is a calorimetric method for determining the number of viable cells in proliferation, cytotoxicity or chemosensitivity assays. The MTS reagent contains a novel tetrazolium compound [3-(4,5-dimethylthiazol-2-yl)-5-(3-carboxymethoxyphenyl)-2-(4-sulfophenyl)-2H-tetrazolium, inner salt] and electron coupling reagent (phenazine ethosulfate;PES). Murine erythroleukemia cells (SC-9) were incubated with vehicle or increasing concentrations of compound for 48 hours. Cell proliferation was quantitated by adding a small amount of the MTS reagent directly to culture wells, incubating for 1-4 hours and then recording the absorbance at 490 nm with a 96-well plate reader. The quantity of formazan product, as measured by […] absorbance, is directly proportional to the number of living cells in culture.

[2] = molecular target: T1, histone deacetylase, subtype 1 (HDAC1) (Homo sapiens, UniProt Q13547); test: HDAC1-Flag assay (in vitro deacetylation assay); format: biochemical; conditions: Table 1, benzothiophene backbone; concentration for 50% inhibition of deacetylation; substrate at Km; unit inferred, text gives nm; read-out: HDAC Inhibition
T1 construct: Flag; made in house
T1 sequence (Q13547 whole entry): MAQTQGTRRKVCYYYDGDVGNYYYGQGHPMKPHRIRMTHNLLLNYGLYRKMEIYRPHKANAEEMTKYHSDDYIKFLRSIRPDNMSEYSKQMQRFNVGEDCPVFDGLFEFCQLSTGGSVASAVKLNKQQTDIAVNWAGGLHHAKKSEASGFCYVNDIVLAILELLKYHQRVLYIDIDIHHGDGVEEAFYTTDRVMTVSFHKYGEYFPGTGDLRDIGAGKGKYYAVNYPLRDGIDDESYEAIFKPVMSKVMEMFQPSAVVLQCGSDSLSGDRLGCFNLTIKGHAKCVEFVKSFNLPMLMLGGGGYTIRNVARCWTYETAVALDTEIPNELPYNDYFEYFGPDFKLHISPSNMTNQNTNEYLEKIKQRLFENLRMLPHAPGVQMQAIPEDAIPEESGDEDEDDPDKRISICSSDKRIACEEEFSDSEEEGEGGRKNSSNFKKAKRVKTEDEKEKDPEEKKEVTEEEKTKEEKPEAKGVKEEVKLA
Procedure, shortened: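 Enzyme: Flag epitope-tagged human HDAC1 complex immunopurified from stably expressing mammalian cells. Substrate carries an acetylated lysine side chain; deacetylation yields a fluorophore proportional to activity, measured as fluorescence.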

Compound	IC50 [1] [nM]	IC50 [2] [nM]
O=C(Cc1cccnc1)Nc1ccc2cc(C(=O)NO)sc2c1 [Compound 110]	833 ± 65	61 ± 15.5
O=C(NO)c1cc2ccc(NC(=O)C(c3ccccc3)c3ccccc3)cc2s1 [Compound 28]	696	79.5 ± 0.7
O=C(CN(CC(=O)Nc1ccccc1)c1ccc2sc(C(=O)NO)cc2c1)Nc1ccccc1 [Compound 177]	259 ± 48.7	57.3 ± 18.5
O=C(NO)c1cc2ccc(NC(=O)C3(c4ccccc4)CC3)cc2s1 [Compound 126]	836	125 ± 5.6
CC(C(=O)Nc1ccc2cc(C(=O)NO)sc2c1)c1ccccc1 (centres unmarked) [Compound 123]	206 ± 79.2	18 ± 5.6
O=C(Cc1ccc(Cl)cc1)Nc1ccc2cc(C(=O)NO)sc2c1 [Compound 88]	238	19 ± 5.6
COc1cccc(N2CCN(CC(=O)Nc3ccc4cc(C(=O)NO)sc4c3)CC2)c1 [Compound 100]	519 ± 65.7	45 ± 5.6
